pIC50: −log10 of the molar value.
How the values were obtained:
[1] = target: Mitogen-activated protein kinase kinase kinase 14 (Homo sapiens, UniProt Q99558); test: Inhibition of recombinant human N-terminal GST-tagged NIK (318 to 947 residues) expressed in baculovirus infected Sf9 cells using ultrapure ATP as substrate measured after 1 hr by ADP-glo assay
[2] = Oral bioavailability in ICR mouse; type: ADME, organism-based; details: in vivo
[3] = Stability of the compound in pH 1 aqueous solution; type: physicochemical; details: buffer

Sequence of Mitogen-activated protein kinase kinase kinase 14 (Q99558 whole entry, the tested form may be a part): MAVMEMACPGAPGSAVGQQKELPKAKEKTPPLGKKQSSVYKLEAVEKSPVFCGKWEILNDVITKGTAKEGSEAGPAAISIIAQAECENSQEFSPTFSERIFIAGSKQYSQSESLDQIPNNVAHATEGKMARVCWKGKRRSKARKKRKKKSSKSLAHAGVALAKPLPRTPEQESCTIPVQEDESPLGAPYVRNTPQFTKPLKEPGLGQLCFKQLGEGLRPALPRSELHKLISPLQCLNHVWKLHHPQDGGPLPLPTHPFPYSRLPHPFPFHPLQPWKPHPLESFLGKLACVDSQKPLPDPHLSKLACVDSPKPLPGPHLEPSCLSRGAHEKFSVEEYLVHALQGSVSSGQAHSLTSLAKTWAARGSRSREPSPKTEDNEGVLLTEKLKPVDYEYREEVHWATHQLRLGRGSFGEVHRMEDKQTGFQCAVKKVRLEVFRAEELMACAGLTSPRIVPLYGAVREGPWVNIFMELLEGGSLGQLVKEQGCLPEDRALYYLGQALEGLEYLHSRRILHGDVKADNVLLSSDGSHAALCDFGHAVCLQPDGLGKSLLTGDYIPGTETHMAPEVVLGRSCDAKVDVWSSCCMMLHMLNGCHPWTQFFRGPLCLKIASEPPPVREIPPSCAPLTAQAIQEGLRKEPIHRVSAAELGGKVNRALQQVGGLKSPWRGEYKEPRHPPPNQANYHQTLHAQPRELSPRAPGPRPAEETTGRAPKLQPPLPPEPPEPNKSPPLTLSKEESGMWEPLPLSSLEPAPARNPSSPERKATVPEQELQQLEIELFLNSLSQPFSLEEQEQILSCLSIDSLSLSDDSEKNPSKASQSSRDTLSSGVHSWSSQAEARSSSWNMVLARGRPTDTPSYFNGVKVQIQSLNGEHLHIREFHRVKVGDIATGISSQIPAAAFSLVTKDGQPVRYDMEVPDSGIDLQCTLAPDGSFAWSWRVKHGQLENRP

| Structure (SMILES) | pIC50 [1] | bioavailability [2] [%] | Stability [3] |
| --- | --- | --- | --- |
| COc1ccc(C#CC(C)(O)c2nccs2)cc1-c1c[nH]c2cnc(N)nc12 (configuration not stated) | 6.92 | – | – |
| CN1CCC(O)(C#Cc2ccc(F)c(-c3c[nH]c4cnc(N)nc34)c2)C1=O (configuration not stated) | 8.23 | 7 | Stable |
| Nc1ncc2[nH]cc(-c3cccc(C#CC(O)c4nccs4)c3)c2n1 (configuration not stated) | 5.20 | – | – |
| CC(O)(C#Cc1cccc(-c2c[nH]c3cnc(N)nc23)c1)C(=O)N1CCCC1 (configuration not stated) | < 5.00 | – | – |
| CC(O)(C#Cc1cc(Cl)cc(-c2c[nH]c3cnc(N)nc23)c1)c1nccs1 (configuration not stated) | < 5.00 | – | – |
| CC(O)(C#Cc1cccc(-c2c[nH]c3cnc(N)nc23)c1)C1CCCCC1 (configuration not stated) | 5.69 | – | – |
| Cc1cc(C(C)(O)C#Cc2cccc(-c3c[nH]c4cnc(N)nc34)c2)no1 (configuration not stated) | 6.54 | – | – |
| CC(O)(C#Cc1ccc(F)c(-c2c[nH]c3cnc(N)nc23)c1)c1nccs1 (configuration not stated) | 7.07 | – | Stable |
| Nc1ncc2ccn(-c3ccnc(C#CC4(O)CCCCC4)c3)c2n1 | 5.80 | – | – |
| CN1CCC(O)(C#Cc2cc(-n3ccc4ccc(N)nc43)ccn2)C1=O (configuration not stated) | 5.61 | – | – |
| CN1CCC(O)(C#Cc2cccc(-c3c[nH]c4cnc(N)nc34)c2)C1=O (configuration not stated) | 6.39 | – | – |
| Cc1[nH]c2cnc(N)nc2c1-c1cccc(C#CC(C)(O)c2nccs2)c1 (configuration not stated) | 5.66 | – | – |
| C[C@](O)(C#Cc1ccc(F)c(-c2c[nH]c3cnc(N)nc23)c1)c1nccs1 | 5.65 | – | – |
| Nc1ncc2[nH]cc(-c3cccc(C#CC4(O)CCCC4)c3)c2n1 | 6.32 | – | – |
| Nc1ncc2ccn(-c3ccnc(C#CC4(O)CCCCCC4)c3)c2n1 | 6.13 | – | – |
| CC(O)(C#Cc1cccc(-c2c[nH]c3cnc(N)nc23)c1)c1cnccn1 (configuration not stated) | 6.33 | – | – |

Next, values leading:

| pIC50 [1] | bioavailability [2] [%] | Stability [3] | Structure (SMILES) |
| --- | --- | --- | --- |
| 6.19 | – | – | CC(O)(C#Cc1cc(-n2ccc3cnc(N)nc32)c(F)cc1F)c1nccs1 (configuration not stated) |
| 5.21 | – | – | CC(O)(C#Cc1cc(-n2ccc3cnc(N)nc32)ccn1)C(=O)N1CCCC1 (configuration not stated) |
| 6.66 | – | – | CC(O)(C#Cc1cc(-n2ccc3cnc(N)nc32)ccc1C#N)c1nccs1 (configuration not stated) |
| 6.92 | – | – | Cc1cc(C(C)(O)C#Cc2cc(-n3ccc4cnc(N)nc43)ccn2)no1 (configuration not stated) |
| 6.69 | – | – | CC(O)(C#Cc1cc(-n2ccc3cnc(N)nc32)ccc1F)c1nccs1 (configuration not stated) |
| 4.93 | – | – | Cc1ccc(-n2ccc3cnc(N)nc32)cc1C#CC(C)(O)c1nccs1 (configuration not stated) |
| 5.69 | – | – | CC(O)(C#Cc1cc(C#N)cc(-n2ccc3cnc(N)nc32)c1)c1nccs1 (configuration not stated) |
| 5.69 | – | – | CC(O)(C#Cc1cccc(-n2cc(Cl)c3cnc(N)nc32)c1)c1nccs1 (configuration not stated) |
| 7.06 | – | – | CC(O)(C#Cc1cc(-n2ccc3cnc(N)nc32)c(F)cn1)c1nccs1 (configuration not stated) |
| 7.65 | – | Unstable | CC(O)(C#Cc1cc(-n2ccc3cnc(N)nc32)ccn1)c1nccs1 (configuration not stated) |
| 6.67 | – | – | CC(O)(C#Cc1ccc(F)c(-n2ccc3cnc(N)nc32)c1)c1nccs1 (configuration not stated) |
| 5.76 | – | – | COc1ccc(-n2ccc3cnc(N)nc32)cc1C#CC(C)(O)c1nccs1 (configuration not stated) |

— ChEMBL document CHEMBL4402589, “Discovery of a Potent and Selective NF-κB-Inducing Kinase (NIK) Inhibitor That Has Anti-inflammatory Effects in Vitro and in Vivo” (J Med Chem, 2020)
